Assays:
rats = experiment: Acute toxicity study in rats, single oral dose; assay type: in vivo
Description: Acute toxicity studies in rats were undertaken to assess the tolerance of a single oral dose of compound (2) formulated in water. […] Complete recovery from hypoactivity, sedation, and anesthesia occurred in all rats within about 8 hours after dose. Doses above about 1552 mg-eq/kg (about 800 mg-eq/kg of propofol) were not tested.

male rats = experiment: Multiple dose study in rats, five days, oral gavage once a day; assay type: in vivo; details: 49 to 97 mg-eq/kg orally once a day for five days
Description: Multiple dose studies in rats were performed by orally administering compound (2) formulated in water to groups of male rats at doses of 49 mg-eq/kg to 97 mg-eq/kg for a period of five days, by oral gavages administered once a day.

male beagle dogs = experiment: Acute toxicity study in dogs, single oral dose; assay type: in vivo
Description: Acute toxicity studies were also performed by orally administering a single dose of compound (2) formulated in water to groups of male beagle dogs at doses from about 25 mg-eq/kg to about 150 mg-eq/kg.

[1] = oral dosing, rats; cited from earlier work
[2] = orally administered as a homogeneous liquid suspension, relative to an equivalent intravenous dose of propofol; cited from earlier work

SMILES | Time to complete recovery from hypoactivity, sedation, and anesthesia after dose (rats; all rats, single oral dose) [h] | Tolerance of a single oral dose (rats; rats, about 49 mg-eq/kg to about 1552 mg-eq/kg of administered compound, in water) | Hypoactivity (rats; rats, single oral dose about 49 up to about 388 mg-eq/kg, within about 30 minutes of dose, maintained up to 4 hours post dose) | Sedation (rats; rats, single oral dose about 582 up to about 970 mg-eq/kg, within about 1.5 hours of dose, lasted up to 4 hours post dose) | Anesthesia (rats; rats, single oral dose about 1164 up to about 1552 mg-eq/kg, within about 1 hour of dose, lasted up to about 2 hours post dose) | Adverse effects (male rats) | Sedation or anesthesia (male rats) | Tolerance of multiple doses (male rats) | Tolerance of a single oral dose (male beagle dogs; about 25 mg-eq/kg to about 150 mg-eq/kg, in water) | Sedation or anesthesia (male beagle dogs; single oral dose about 25 to about 150 mg-eq/kg) | Administered drug undergoing first pass metabolism [1] | Oral bioavailability [2]
CC(C)c1cccc(C(C)C)c1OC(=O)OC[C@H](N)C(=O)O (stereo in doubt) [compound (2), 2-amino-3-(2,6-diisopropyl-phenoxycarbonyloxy)-propanoic acid] | ≤ 8 | well tolerated | Transient hypoactivity was observed | Sedation was observed | Anesthesia was observed | No adverse effects were observed | No sedation or anesthesia was observed | well tolerated | well tolerated | No sedation or anesthesia was observed |  | 
CC(C)c1cccc(C(C)C)c1O [propofol, 2,6-diisopropylphenol] |  |  |  |  |  |  |  |  |  |  | approximately 90% | less than 5%

Source: patent publication US20080161400A1, “USE OF FORMS OF PROPOFOL FOR TREATING DISEASES ASSOCIATED WITH OXIDATIVE STRESS” (XenoPort, Inc., priority 2006, published 2008)
